Data taken from PubChem BioAssay (NCI).
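Each compound was tested at five concentrations against cells in 96-well plates for 48 hours. TGI marks complete inhibition of growth.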

How the values were obtained:
Assay in all cases: NCI tumour cell line growth inhibition, 48 h
[1] = test system: SNB-75 CNS
[2] = test system: SF-539 CNS
[3] = test system: T-47D breast
[4] = test system: HCT-116 colon
[5] = test system: MALME-3M melanoma
[6] = test system: HOP-62 NSCLC
[7] = test system: 786-0 renal
[8] = test system: SK-OV-3 ovarian
[9] = test system: HCT-15 colon
[10] = test system: MDA-MB-435
[11] = test system: SNB-19 CNS
[12] = test system: MCF7 breast
[13] = test system: MDA-N
[14] = test system: HT29 colon
[15] = test system: SK-MEL-28 melanoma
[16] = test system: U251 CNS
[17] = test system: OVCAR-4 ovarian
[18] = test system: HCC-2998 colon
[19] = test system: PC-3 prostate
[20] = test system: CAKI-1 renal
[21] = test system: SK-MEL-2 melanoma
[22] = test system: NCI-H226 lung
[23] = test system: SR leukemia
[24] = test system: MOLT-4 leukemia
[25] = test system: NCI-H522 lung
[26] = test system: COLO 205 colon
[27] = test system: HS 578T breast
[28] = test system: EKVX NSCLC
[29] = test system: OVCAR-3 ovarian
[30] = test system: TK-10 renal
[31] = test system: A549 NSCLC
[32] = test system: SF-268 CNS
[33] = test system: UACC-257 melanoma
[34] = test system: SK-MEL-5 melanoma
[35] = test system: CCRF-CEM leukemia
[36] = test system: LOX IMVI melanoma
[37] = test system: KM12 colon
[38] = test system: HL-60(TB) leukemia
[39] = test system: K-562 leukemia
[40] = test system: SW-620 colon
[41] = test system: NCI-H23 lung
[42] = test system: A498 renal
[43] = test system: UACC-62 melanoma
[44] = test system: BT-549 breast
[45] = test system: OVCAR-8 ovarian
[46] = test system: DU-145 prostate
[47] = test system: M14 melanoma
[48] = test system: OVCAR-5 ovarian
[49] = test system: NCI-H460 lung
[50] = test system: RPMI-8226 leukemia
[51] = test system: MDA-MB-231 breast
[52] = test system: ACHN renal
[53] = test system: SN12C renal
[54] = test system: NCI/ADR-RES ovarian
[55] = test system: RXF 393 renal
[56] = test system: HOP-92 NSCLC
[57] = test system: IGROV1 ovarian
[58] = test system: UO-31 renal
[59] = test system: SF-295 CNS

Structure (SMILES): Cc1ccc(NC(=O)/C=C/c2ccccc2)c(C)c1
- TGI [1]: > 100 µM
- TGI [2]: > 100 µM
- TGI [3]: > 100 µM
- TGI [4]: > 100 µM
- TGI [5]: > 100 µM
- TGI [6]: > 100 µM
- TGI [7]: > 100 µM
- TGI [8]: > 100 µM
- TGI [9]: > 100 µM
- TGI [10]: > 100 µM
- TGI [11]: > 100 µM
- TGI [12]: > 100 µM
- TGI [13]: > 100 µM
- TGI [14]: > 100 µM
- TGI [15]: > 100 µM
- TGI [16]: > 100 µM
- TGI [17]: > 100 µM
- TGI [18]: > 100 µM
- TGI [19]: > 100 µM
- TGI [20]: > 100 µM
- TGI [21]: > 100 µM
- TGI [22]: 92 µM
- TGI [23]: > 100 µM
- TGI [24]: > 100 µM
- TGI [25]: > 100 µM
- TGI [26]: > 100 µM
- TGI [27]: 74.4 µM
- TGI [28]: > 100 µM
- TGI [29]: > 100 µM
- TGI [30]: > 100 µM
- TGI [31]: > 100 µM
- TGI [32]: > 100 µM
- TGI [33]: > 100 µM
- TGI [34]: > 100 µM
- TGI [35]: > 100 µM
- TGI [36]: > 100 µM
- TGI [37]: > 100 µM
- TGI [38]: > 100 µM
- TGI [39]: > 100 µM
- TGI [40]: > 100 µM
- TGI [41]: > 100 µM
- TGI [42]: > 100 µM
- TGI [43]: > 100 µM
- TGI [44]: > 100 µM
- TGI [45]: > 100 µM
- TGI [46]: > 100 µM
- TGI [47]: > 100 µM
- TGI [48]: > 100 µM
- TGI [49]: > 100 µM
- TGI [50]: > 100 µM
- TGI [51]: > 100 µM
- TGI [52]: > 100 µM
- TGI [53]: > 100 µM

Structure (SMILES): COc1ccc2oc(=N)c(C(N)=O)cc2c1
- TGI [1]: > 100 µM
- TGI [2]: > 100 µM
- TGI [3]: > 100 µM
- TGI [54]: > 100 µM
- TGI [4]: > 100 µM
- TGI [6]: > 100 µM
- TGI [7]: > 100 µM
- TGI [8]: > 100 µM
- TGI [9]: > 100 µM
- TGI [10]: > 100 µM
- TGI [11]: > 100 µM
- TGI [13]: > 100 µM
- TGI [14]: > 100 µM
- TGI [15]: > 100 µM
- TGI [16]: > 100 µM
- TGI [17]: > 100 µM
- TGI [18]: > 100 µM
- TGI [19]: > 100 µM
- TGI [20]: > 100 µM
- TGI [21]: 63 µM
- TGI [22]: > 100 µM
- TGI [23]: > 100 µM
- TGI [55]: > 100 µM
- TGI [24]: > 100 µM
- TGI [26]: > 100 µM
- TGI [27]: 61.7 µM
- TGI [29]: > 100 µM
- TGI [31]: > 100 µM
- TGI [32]: > 100 µM
- TGI [56]: > 100 µM
- TGI [33]: > 100 µM
- TGI [34]: > 100 µM
- TGI [35]: > 100 µM
- TGI [36]: > 100 µM
- TGI [37]: > 100 µM
- TGI [57]: > 100 µM
- TGI [38]: > 100 µM
- TGI [39]: > 100 µM
- TGI [40]: > 100 µM
- TGI [41]: > 100 µM
- TGI [42]: > 100 µM
- TGI [43]: > 100 µM
- TGI [44]: > 100 µM
- TGI [45]: > 100 µM
- TGI [46]: > 100 µM
- TGI [47]: > 100 µM
- TGI [48]: > 100 µM
- TGI [49]: > 100 µM
- TGI [50]: > 100 µM
- TGI [51]: > 100 µM
- TGI [52]: > 100 µM
- TGI [53]: > 100 µM

Structure (SMILES): c1cc2ccc3cc4ncccc4c4ccc(c1)c2c34
- TGI [1]: > 100 µM
- TGI [2]: > 100 µM
- TGI [3]: > 100 µM
- TGI [54]: > 100 µM
- TGI [4]: > 100 µM
- TGI [5]: > 100 µM
- TGI [6]: > 100 µM
- TGI [7]: > 100 µM
- TGI [8]: > 100 µM
- TGI [9]: > 100 µM
- TGI [10]: > 100 µM
- TGI [11]: > 100 µM
- TGI [12]: > 100 µM
- TGI [13]: > 100 µM
- TGI [14]: > 100 µM
- TGI [15]: > 100 µM
- TGI [16]: > 100 µM
- TGI [18]: > 100 µM
- TGI [19]: > 100 µM
- TGI [20]: > 100 µM
- TGI [21]: 77 µM
- TGI [22]: > 100 µM
- TGI [23]: > 100 µM
- TGI [55]: > 100 µM
- TGI [24]: > 100 µM
- TGI [25]: > 100 µM
- TGI [26]: > 100 µM
- TGI [27]: > 100 µM
- TGI [28]: > 100 µM
- TGI [29]: > 100 µM
- TGI [58]: 40.2 µM
- TGI [59]: > 100 µM
- TGI [30]: > 100 µM
- TGI [31]: > 100 µM
- TGI [32]: > 100 µM
- TGI [56]: > 100 µM
- TGI [33]: > 100 µM
- TGI [35]: > 100 µM
- TGI [36]: > 100 µM
- TGI [37]: > 100 µM
- TGI [57]: 25 µM
- TGI [38]: > 100 µM
- TGI [39]: > 100 µM
- TGI [40]: > 100 µM
- TGI [41]: > 100 µM
- TGI [43]: > 100 µM
- TGI [45]: 67.4 µM
- TGI [46]: > 100 µM
- TGI [47]: > 100 µM
- TGI [48]: > 100 µM
- TGI [49]: > 100 µM
- TGI [50]: 88.3 µM
- TGI [51]: > 100 µM
- TGI [52]: 31.6 µM
- TGI [53]: > 100 µM

Structure (SMILES): Brc1ccc(-c2[nH]c3ccccc3c2N=Nc2ccccc2)cc1
- TGI [1]: 33.9 µM
- TGI [2]: 32 µM
- TGI [3]: 32.5 µM
- TGI [4]: 34.8 µM
- TGI [5]: 36.1 µM
- TGI [6]: 34.7 µM
- TGI [7]: 32.9 µM
- TGI [8]: 33 µM
- TGI [9]: 30 µM
- TGI [10]: 34.5 µM
- TGI [11]: 38.1 µM
- TGI [12]: 31.7 µM
- TGI [13]: 30.5 µM
- TGI [15]: 37.8 µM
- TGI [16]: 33.9 µM
- TGI [17]: 30.4 µM
- TGI [18]: 30.7 µM
- TGI [19]: 32.6 µM
- TGI [20]: 27.8 µM
- TGI [21]: 36.7 µM
- TGI [23]: 51.8 µM
- TGI [55]: 30.8 µM
- TGI [24]: 38.6 µM
- TGI [25]: 34.6 µM
- TGI [26]: 28.5 µM
- TGI [27]: 44.1 µM
- TGI [28]: 32.9 µM
- TGI [29]: 26.8 µM
- TGI [58]: 29.9 µM
- TGI [59]: 33.3 µM
- TGI [30]: 37.8 µM
- TGI [31]: 30.5 µM
- TGI [32]: 36 µM
- TGI [56]: 36.2 µM
- TGI [33]: 35.1 µM
- TGI [34]: 32.7 µM
- TGI [36]: 65.2 µM
- TGI [37]: 36.1 µM
- TGI [57]: 26.2 µM
- TGI [38]: 63.4 µM
- TGI [39]: > 100 µM
- TGI [40]: 35.3 µM
- TGI [41]: 34.1 µM
- TGI [42]: 44.1 µM
- TGI [43]: 36.7 µM
- TGI [44]: 41.5 µM
- TGI [46]: 32.2 µM
- TGI [47]: 33.5 µM
- TGI [48]: 33.5 µM
- TGI [49]: 31.8 µM
- TGI [50]: 58 µM
- TGI [51]: 35.8 µM
- TGI [52]: 37.2 µM
- TGI [53]: 31.6 µM

Structure (SMILES): CC(C)(C)OC(=O)N1CC(O)O[C@H](c2ccccc2)[C@@H]1c1ccccc1 (some centres not stated)
- TGI [1]: 70.2 µM
- TGI [3]: > 100 µM
- TGI [54]: > 100 µM
- TGI [4]: > 100 µM
- TGI [5]: 43.2 µM
- TGI [6]: 31.2 µM
- TGI [7]: 62.1 µM
- TGI [8]: 36.6 µM
- TGI [9]: 33.9 µM
- TGI [10]: 32.2 µM
- TGI [11]: 29.1 µM
- TGI [13]: 59.5 µM
- TGI [14]: 39.3 µM
- TGI [15]: 35.2 µM
- TGI [16]: 33.4 µM
- TGI [17]: 36.2 µM
- TGI [19]: 27.8 µM
- TGI [20]: > 100 µM
- TGI [21]: 28.4 µM
- TGI [22]: 45.7 µM
- TGI [23]: 62.8 µM
- TGI [55]: 30 µM
- TGI [24]: 97.5 µM
- TGI [25]: 45.6 µM
- TGI [26]: 97.4 µM
- TGI [27]: > 100 µM
- TGI [28]: 40.9 µM
- TGI [29]: 30.2 µM
- TGI [58]: 31.4 µM
- TGI [59]: 30.1 µM
- TGI [30]: 33.1 µM
- TGI [31]: 39.5 µM
- TGI [32]: 77.6 µM
- TGI [56]: 36.1 µM
- TGI [33]: 35.3 µM
- TGI [34]: > 100 µM
- TGI [35]: 48.4 µM
- TGI [36]: > 100 µM
- TGI [37]: 42 µM
- TGI [57]: 40.4 µM
- TGI [39]: > 100 µM
- TGI [40]: 32.8 µM
- TGI [41]: 29.5 µM
- TGI [42]: 40.7 µM
- TGI [43]: 28.1 µM
- TGI [44]: 36.4 µM
- TGI [45]: > 100 µM
- TGI [46]: 53.8 µM
- TGI [47]: 30.2 µM
- TGI [48]: 32.3 µM
- TGI [50]: > 100 µM
- TGI [51]: 67.6 µM
- TGI [53]: > 100 µM
